From PubChem BioAssay (NCI)
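Method: 48-hour compound exposure of cells in 96-well plates, five concentrations, linear interpolation of endpoints. TGI: concentration producing complete growth inhibition.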

Tests used:
Test in all cases: growth of human tumour cells (NCI), 48 h
786-0 renal = test system: 786-0 renal
A498 renal = test system: A498 renal
A549 NSCLC = test system: A549 NSCLC
ACHN renal = test system: ACHN renal
BT-549 breast = test system: BT-549 breast
CAKI-1 renal = test system: CAKI-1 renal
CCRF-CEM leukemia = test system: CCRF-CEM leukemia
COLO 205 colon = test system: COLO 205 colon
DU-145 prostate = test system: DU-145 prostate
EKVX NSCLC = test system: EKVX NSCLC
HCC-2998 colon = test system: HCC-2998 colon
HCT-116 colon = test system: HCT-116 colon
HL-60(TB) leukemia = test system: HL-60(TB) leukemia
HOP-62 NSCLC = test system: HOP-62 NSCLC
HOP-92 NSCLC = test system: HOP-92 NSCLC
HS 578T breast = test system: HS 578T breast
HT29 colon = test system: HT29 colon
IGROV1 ovarian = test system: IGROV1 ovarian
K-562 leukemia = test system: K-562 leukemia
KM12 colon = test system: KM12 colon
LOX IMVI melanoma = test system: LOX IMVI melanoma
M14 melanoma = test system: M14 melanoma
MALME-3M melanoma = test system: MALME-3M melanoma
MCF7 breast = test system: MCF7 breast
MDA-MB-231 breast = test system: MDA-MB-231 breast
MDA-MB-435 = test system: MDA-MB-435
MDA-N = test system: MDA-N
MOLT-4 leukemia = test system: MOLT-4 leukemia
NCI-H226 lung = test system: NCI-H226 lung
NCI-H23 lung = test system: NCI-H23 lung
NCI-H460 lung = test system: NCI-H460 lung
NCI-H522 lung = test system: NCI-H522 lung
NCI/ADR-RES ovarian = test system: NCI/ADR-RES ovarian
OVCAR-3 ovarian = test system: OVCAR-3 ovarian
OVCAR-4 ovarian = test system: OVCAR-4 ovarian
OVCAR-5 ovarian = test system: OVCAR-5 ovarian
PC-3 prostate = test system: PC-3 prostate
RPMI-8226 leukemia = test system: RPMI-8226 leukemia
RXF 393 renal = test system: RXF 393 renal
SF-268 CNS = test system: SF-268 CNS
SF-295 CNS = test system: SF-295 CNS
SF-539 CNS = test system: SF-539 CNS
SK-MEL-2 melanoma = test system: SK-MEL-2 melanoma
SK-MEL-28 melanoma = test system: SK-MEL-28 melanoma
SK-MEL-5 melanoma = test system: SK-MEL-5 melanoma
SK-OV-3 ovarian = test system: SK-OV-3 ovarian
SN12C renal = test system: SN12C renal
SNB-19 CNS = test system: SNB-19 CNS
SNB-75 CNS = test system: SNB-75 CNS
SR leukemia = test system: SR leukemia
SW-620 colon = test system: SW-620 colon
TK-10 renal = test system: TK-10 renal
U251 CNS = test system: U251 CNS
UACC-257 melanoma = test system: UACC-257 melanoma
UACC-62 melanoma = test system: UACC-62 melanoma
UO-31 renal = test system: UO-31 renal
HCT-15 colon = test system: HCT-15 colon
OVCAR-8 ovarian = test system: OVCAR-8 ovarian
T-47D breast = test system: T-47D breast

Measured: TGI

C=C(Cl)/C(=C\Cl)CCC(Cl)C(C)C (stereo not drawn)
> 100 µM: 786-0 renal | A498 renal | A549 NSCLC | ACHN renal | BT-549 breast | CAKI-1 renal | CCRF-CEM leukemia | COLO 205 colon | DU-145 prostate | EKVX NSCLC | HCC-2998 colon | HCT-116 colon | HL-60(TB) leukemia | HOP-62 NSCLC | HOP-92 NSCLC | HS 578T breast | HT29 colon | IGROV1 ovarian | K-562 leukemia | KM12 colon | LOX IMVI melanoma | M14 melanoma | MALME-3M melanoma | MCF7 breast | MDA-MB-231 breast | MDA-MB-435 | MDA-N | MOLT-4 leukemia | NCI-H226 lung | NCI-H23 lung | NCI-H460 lung | NCI-H522 lung | NCI/ADR-RES ovarian | OVCAR-3 ovarian | OVCAR-4 ovarian | OVCAR-5 ovarian | PC-3 prostate | RPMI-8226 leukemia | RXF 393 renal | SF-268 CNS | SF-295 CNS | SF-539 CNS | SK-MEL-2 melanoma | SK-MEL-28 melanoma | SK-MEL-5 melanoma | SK-OV-3 ovarian | SN12C renal | SNB-19 CNS | SNB-75 CNS | SR leukemia | SW-620 colon | TK-10 renal | U251 CNS | UACC-257 melanoma | UACC-62 melanoma | UO-31 renal

Cc1c(O)c(OC2OC(CO)C(O)C(O)C2O)cc2c1C=C[C@@H]1[C@@]2(C)C(=O)C[C@]2(C)[C@@H]([C@@](C)(O)C(O)/C=C/C(C)(C)O)[C@H](O)C[C@@]12C (stereo partly drawn)
> 100 µM: 786-0 renal | A498 renal | A549 NSCLC | ACHN renal | BT-549 breast | CAKI-1 renal | CCRF-CEM leukemia | COLO 205 colon | DU-145 prostate | EKVX NSCLC | HCC-2998 colon | HCT-116 colon | HCT-15 colon | HL-60(TB) leukemia | HOP-62 NSCLC | HOP-92 NSCLC | HT29 colon | IGROV1 ovarian | K-562 leukemia | KM12 colon | LOX IMVI melanoma | M14 melanoma | MALME-3M melanoma | MCF7 breast | MDA-MB-231 breast | MDA-MB-435 | MDA-N | MOLT-4 leukemia | NCI-H226 lung | NCI-H23 lung | NCI-H460 lung | NCI-H522 lung | NCI/ADR-RES ovarian | OVCAR-3 ovarian | OVCAR-4 ovarian | OVCAR-5 ovarian | OVCAR-8 ovarian | PC-3 prostate | RXF 393 renal | SF-268 CNS | SF-295 CNS | SF-539 CNS | SK-MEL-2 melanoma | SK-MEL-28 melanoma | SK-MEL-5 melanoma | SK-OV-3 ovarian | SN12C renal | SNB-19 CNS | SNB-75 CNS | SR leukemia | SW-620 colon | T-47D breast | TK-10 renal | U251 CNS | UACC-257 melanoma | UACC-62 melanoma | UO-31 renal
